In patent publication US20260364213A1, “RADIOLABELED COMPOUNDS OF TRIMETHOPRIM AND USES THEREOF” (THE TRUSTEES OF THE UNIVERSITY OF PENNSYLVANIA, priority 2023, published 2026):
“Also recorded” adds a separate entry of the source.

How the values were obtained:
Serum stability in FBS = assay type: in vitro ADME; details: FBS at 37 °C, 72 hours, radio-TLC
Protocol: In vitro serum stability of was performed by adding the [^131I]mI-TMP (50 μL, 1.85 MBq) to fetal bovine serum (500 μL). The mixture was then incubated in a ThermoMixer (800 rpm) at 37 °C, and deiodination was analyzed by radio-TLC (10% NH40Ac:MeOH=3:7) at 0, 24, and 72 h. In this condition, free I-131 moved to solvent front whereas intact [^131I]I-TMP remained at the origin.

eDHFR [1] = target: T1, eDHFR (Escherichia coli, UniProt P0ABQ4); details: eDHFR+ cells pre-incubated with 10 μM unlabeled TMP
T1 sequence (P0ABQ4 1-159): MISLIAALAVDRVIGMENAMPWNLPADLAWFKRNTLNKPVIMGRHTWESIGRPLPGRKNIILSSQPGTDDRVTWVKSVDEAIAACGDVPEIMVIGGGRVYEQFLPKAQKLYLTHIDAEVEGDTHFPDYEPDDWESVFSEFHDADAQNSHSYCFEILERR

HCT116-eDHFR tumors = experiment: Ex vivo biodistribution in HCT116 tumor-bearing athymic nude mice; design: species or system human; details: 1.85 MBq i.v., 3 hours
Protocol: (§1) To evaluate the therapeutic potential [^131I]mI-TMP, sixteen (16) 8- to 12-week-old female athymic nude mice (Charles River Laboratories) were inoculated with 1×10^7 HCT116 tumor cells (eDHFR+ or WT) on the left shoulder. The mice were then divided into two groups: […] (8) mice with HCT116-eDHFR (eDHFR-positive cells) and Eight (8) mice with HCT116-WT (eDHFR-negative) cells.
Ex-vivo biodistribution studies were conducted on three (3) tumor-bearing mice from each group, while the remaining ten (10) mice were used to monitor tumor response to radiotherapy.
Three (3) hours post radiotracer injection mice were euthanized, and organs of interest were harvested for biodistribution quantification. Total radioactive uptake per organ, in counts per minute (CPM), was determined by γ-counter (Perkin Elmer).

HCT116 tumor cells = experiment: Radiotherapy of HCT116 tumor-bearing athymic nude mice; assay type: in vivo, human
From the text: Tumor size measurements were taken using calipers from day 1 to 14 post-injection of the [^131I]mI-TMP to monitor the response of radiation therapy. […] See, FIG. 11 and FIG. 12.
as §1
Three (3) of the five (5) mice from each cohort were imaged at 3- and 24-hours post [^131I]mI-TMPI radiotherapy injection using small animal SPECT and CT instruments. Five (5) mice from each cohort (which included the 3 imaged mice from each cohort) were then monitored for 14 days using caliper measurements and IVIS imaging.

eDHFR [2] = target: T1, eDHFR; experiment: Uptake and washout in HCT116-eDHFR-Luc vs WT cells; assay type: cell-based; design: in CAR T cells fused to C-terminus of CD3zeta of FAP-CAR
Protocol: The cells were sampled at 1 h, 2 h and 4 h. […] Similarly, the process cells was repeated for 2 h and 4 h samples.
Next, the therapeutic effect of [^131/125I]mI-TMP in a human colorectal carcinoma cell line, HCT116 was analyzed. […] The specificity of radiotracer uptake was determined by blocking conditions. […] See, FIG. 10A.
A washout study was performed to know the retention of the tracer in the cells. HCT116_eDHFR cells were incubated with 0.037 MBq of compound 5b for 20 minutes. The cells were washed, resuspended and sampled at 60, 120 and 240 minutes. […] To examine the radiotherapeutic effect, the incubation period was increased and the dose […]. The cells were dosed with 3.7 MBq at 37 °C and incubated them with 2 and 4 hours. See, FIG. 10B.

[3] = Ex vivo biodistribution in healthy Balb/c mice; design: species or system mouse
Protocol: Given promising in vitro experimental results, a biodistribution study was conducted on healthy balb/c mice. […] Mice were then euthanized 1-hour, 4-hour, and 24-hour post radiotracer injection, and organs were harvested for bio-distribution quantification. […] Total radioactive uptake per organ, in CPM, was determined by γ-counter (Wizard Detector, Perkin Elmer). […] See, FIG. 10A-10B and FIG. 11. These tissues could be sites where eDHFR could be localized using genetic vectors to achieve a high therapeutic index.
Another ex-vivo biodistribution study was performed with potassium iodide (SSKI) administration 8-12-week-old female balb/c mice (n=9) were administered with intraperitoneal administration for thyroid protection, with a dose of 100 mg/kg potassium iodide in a volume of 100 μL/10 g given the day before treatment, 30 minutes before the radioactive [^131I]mI-TMP injection.

I45 eDHFR-FLAG tumors = experiment: I45 RLT, tumor growth in CD1 nude mice; assay type: in vivo, human; details: 18.5 MBq/mouse i.v. single dose, n=7; listed as [^131I]I-TMP
Protocol: RLT in I45 tumors. […] Briefly, I45 eDHFR-FLAG and WT cells were xenografted into the shoulders of female athymic CD1-Foxn1nu mice. The tumors were allowed to grow for ~2 weeks. Subsequently, [^131I]I-TMP was administered intravenously and a limited biodistribution study was performed. […] To assess for cytotoxicity in I45 mesothelioma cells, I45 WT and I45 eDHFR tumors were separately xenografted into CD1-Foxn1nu mice and either [^131I]I-TMP or saline was administered to form 4 experimental cohorts (n=7).
[^131I]I-TMPI Administration, and Monitoring. Female CD1 nu/nu mice, aged six to eight weeks, underwent subcutaneous xenografting with 1×10^6 I45 WT and I45 eDHFR-Flag cells on the shoulder. The cells were suspended in a 1:1 volume ratio of 75 μL RPMI complete medium and 75 μL Matrigel Matrix (Corning, 354234). Both I45 WT and I45 eDHFR-Flag mice were randomly divided into two groups, with each group consisting of 7 mice. Tumors were grown for 2 weeks. […] [^131I]I-TMP, diluted in 100 μL saline, was injected into two groups containing I45 WT and I45 eDHFR-Flag xenografts on day 9 of initial tumor inoculation. The remaining two groups of I45 WT and I45 eDHFR-Flag xenografts were injected with saline. Tumor growth was monitored from two days before to 10 days after [^131I]I-TMP injection, with measurements taken every other day using calipers. […]

Row | SMILES | serum stability, deiodination (Serum stability in FBS) | uptake under blocked conditions (eDHFR [1]) | uptake in eDHFR tumors relative to WT tumors (HCT116-eDHFR tumors) | tumor size, eDHFR-Luc tumors (HCT116 tumor cells; 18.5 MBq (500 μCi) i.v. tail vein, caliper, day 1 to 14) | tumor size, eDHFR-negative tumors (HCT116 tumor cells; 18.5 MBq (500 μCi) i.v., day 7 to day 14) | uptake of radiotracer in eDHFR+ cells in comparison to wild-type (eDHFR [2]) | stomach and liver uptake with KI pre-treatment ([3]; 0.67 MBq, 1 h) | uptake in blood, heart, lungs, brain, pancreas, bones and spleen with KI pre-treatment ([3]; 0.67 MBq, 1 h) | organ radioactivity, 24 h ([3]; 0.74 MBq i.v. tail vein, 24 h, no KI) | organ radioactivity, 1 h ([3]; 0.74 MBq i.v. tail vein, Balb/c, after 1 h time point) | uptake in heart, lungs, brain, pancreas, bones and spleen ([3]; 0.74 MBq i.v., all time points (1, 4, 24 h)) | organ radioactivity with KI pre-treatment ([3]; kidney, small intestine, large intestine, 0.67 MBq, 1 h) | thyroid uptake with KI pre-treatment ([3]; potassium iodide (SSKI) 100 mg/kg, 0.67 MBq, 1 h) | tumor growth / in vivo cytotoxicity, I45 eDHFR tumors (I45 eDHFR-FLAG tumors)
1 | COc1cc(Cc2cnc(N)nc2N)cc(I)c1OC [[^131I]mI-TMP, 5-(3-iodo-4,5-dimethoxybenzyl)pyrimidine-2,4-diamine] | without any detectable deiodination | reduced uptake | – | – | – | – | – | – | – | – | – | – | – | –
2 | COc1cc(Cc2cnc(N)nc2N)cc([131I])c1OC [[^131I]mI-TMP, 5-(3-iodo-4,5-dimethoxybenzyl)pyrimidine-2,4-diamine] | – | – | twice as much | reduction in tumor size at day 7 post-injection, which remained stable until day 10 but increased by day 14 | continued to grow from day 7 to day 14 | two-fold increase in uptake | low uptake | Minimal to no uptake; also recorded: negligible uptake | increase in radioactivity in thyroid, indicating the deiodination | significant increase in the radioactivity in the kidney, small intestine, stomach, and liver | Minimal to no uptake | significant increase in the radioactivity in the kidney, small intestine and large intestine | abrogated thyroid uptake | clear reduction in tumor growth; also recorded: shows in vivo cytotoxicity toward eDHFR-expressing I45 cells
